Reference: patent publication US20250388575A1, “HETEROBIFUNCTIONAL COMPOUNDS AND METHODS OF TREATING DISEASE” (Halda Therapeutics OpCo, Inc., priority 2022, published 2025)
Where two headings read alike, the source gives them in different places.

Assays:
[1] = biological target: BRD4-BD1 (Homo sapiens (Human), UniProt O60885); test: bromoKdELECT assay for binding affinity to BRD4-BD1; settings: 11-point 3-fold dilution
Procedure: (§1) Compounds were tested using a bromoKdELECT assay. T7 phage strains displaying bromodomains were grown in parallel in 24-well blocks in an E. coli host derived from the BL21 strain. E. coli were grown to log-phase and infected with T7 phage from a frozen stock (multiplicity of infection=0.4) and incubated with shaking at 32° C. until lysis (90-150 minutes). The lysates were centrifuged (5,000×g) and filtered (0.2 μm) to remove cell debris. Streptavidin-coated magnetic beads were treated with biotinylated small molecule or acetylated peptide ligands for 30 minutes at room temperature to generate affinity resins for bromodomain assays. The liganded beads were blocked with excess biotin and washed with blocking buffer (SeaBlock (Pierce), 1% BSA, 0.05% Tween 20, 1 mM DTT) to remove unbound ligand and to reduce nonspecific phage binding. Binding reactions were assembled by combining bromodomains, liganded affinity beads, and test compounds in 1× binding buffer (17% SeaBlock, 0.33×PBS, 0.04% Tween 20, 0.02% BSA, 0.004% Sodium azide, 7.4 mM DTT). Test compounds were prepared as 1000× stocks in 100% DMSO. Kds were determined using an 11-point 3-fold compound dilution series with one DMSO control point. All compounds for Kd measurements are distributed by acoustic transfer (non-contact dispensing) in 100% DMSO. The compounds were then diluted directly into the assays such that the final concentration of DMSO was 0.09%. All reactions performed in polypropylene 384-well plates. Each was a final volume of 0.02 ml. The assay plates were incubated at room temperature with shaking for 1 hour and the affinity beads were washed with wash buffer (1×PBS, 0.05% Tween 20). The beads were then resuspended in elution buffer (1×PBS, 0.05% Tween 20, 2 μM non-biotinylated affinity ligand) and incubated at room temperature with shaking for 30 minutes. The bromodomain concentration in the eluates was measured by qPCR.

[2] = biological target: BRD4-BD2 (Homo sapiens (Human), UniProt O60885); test: bromoKdELECT assay for binding affinity to BRD4-BD2; settings: 11-point 3-fold dilution
Procedure: as §1

[3] = test system: T-Rex 293 cell line SC3 cells having increased expression of androgen receptor protein; test: Cellular growth inhibition, T-Rex 293 SC3 cells with increased androgen receptor expression (doxycycline), CellTiter-Glo; type: cell-based; settings: T-Rex 293 SC3 cells with increased androgen receptor expression (exposed to 10 ng/mL doxycycline), 72 hours, CellTiter-Glo; read-out: GI50
In short: (§2)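 SC3, a T-Rex 293 clone with doxycycline-inducible wild-type androgen receptor, was seeded in phenol red-free DMEM with 10% charcoal-dextran FBS, with or without 10 ng/mL doxycycline. Compound added at 24 h (0.5% DMSO) for 72 h at 37° C. CellTiter-Glo 2.0 luminescence; GI50 from four-parameter fit.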

[4] = test system: T-Rex 293 cell line SC3 cells lacking increased expression of androgen receptor protein; test: Cellular growth inhibition, T-Rex 293 SC3 cells lacking increased androgen receptor expression (no doxycycline), CellTiter-Glo; type: cell-based; settings: T-Rex 293 SC3 cells lacking increased androgen receptor expression (not exposed to doxycycline), 72 hours, CellTiter-Glo; read-out: GI50
In short: as §2

[5] = test system: VCaP cells; test: Cellular growth inhibition assay for VCaP cells, CellTiter-Glo; type: cell-based, human; settings: VCaP cells, 72 hours, CellTiter-Glo, read-out: GI50
In short: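 GI50 values come from four-parameter curve fits of luminescence data normalized to a zero baseline. Compound, in medium with 0.5% DMSO, was added one day after plating and left for 72 h before CellTiter-Glo 2.0 addition.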

[6] = biological target: progesterone receptor ligand binding domain (LBD) (Homo sapiens (Human), UniProt P06401); test: FP assay for binding affinity to progesterone receptor (PolarScreen Progesterone Receptor Competitor Assay); settings: GST-tagged PR LBD, Fluormone tracer, fluorescence polarization, 2 hours at room temperature
progesterone receptor ligand binding domain (LBD), sequence (P06401 679-913): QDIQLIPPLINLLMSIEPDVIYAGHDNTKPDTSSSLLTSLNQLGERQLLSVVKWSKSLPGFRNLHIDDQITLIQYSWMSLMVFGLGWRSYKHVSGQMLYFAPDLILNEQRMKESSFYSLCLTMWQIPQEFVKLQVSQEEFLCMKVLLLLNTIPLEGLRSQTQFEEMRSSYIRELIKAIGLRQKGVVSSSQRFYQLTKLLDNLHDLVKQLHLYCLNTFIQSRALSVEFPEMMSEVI
Procedure: Compounds were tested using the PolarScreen™ Progesterone Receptor Competitor Assay Kit (Life Technologies Cat #A15905 or a15906), as per the manufacturer's instructions. Briefly, GST-tagged PR LBD, Fluormone tracer, and compound were mixed and incubated for 2 hours at room temperature in the dark. Following incubation, the plates were spun at 3000×g for 30 seconds, then sealed with an optical adhesive cover, and fluorescence polarization was measured using appropriate excitation and emission filters with an EnVision Plate Reader (Perkin Elmer). Compound concentration vs. mP value were plotted in Prism (GraphPad). A four-parameter non-linear regression curve fit was applied to dose-response data to determine the half-maximal inhibitory concentration (IC50) for each test compound.

[7] = test system: T47D cells; test: Cellular growth inhibition assay for T47D cells, CellTiter-Glo; type: cell-based, human; settings: 72 hours treatment, CellTiter-Glo 2.0
In short: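 Cells are plated at 3000/well and allowed 24 h before treatment. Test compound in medium containing 0.5% DMSO is then added, with DMSO-only wells as negative control, and plates are incubated 72 h at 37 °C. ATP luminescence (CellTiter-Glo 2.0) is then fitted to four parameters to derive GI50.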

[8] = test system: T-Rex 293 cell line SC cells having increased expression of progesterone receptor isoform B protein; test: Cellular growth inhibition, T-Rex 293 SC cells with increased progesterone receptor isoform B expression (doxycycline), CellTiter-Glo; type: cell-based; settings: progesterone receptor isoform B induced with 10 ng/mL doxycycline, 72 hours
Procedure: (§3) The following types of cells were prepared for this experiment: (i) a T-Rex 293 cell line having increased expression of progesterone receptor isoform B protein due to exposure to doxycycline and (ii) a T-Rex 293 cell line lacking increased expression of progesterone receptor isoform B protein. Ability of the test compounds to inhibit proliferation of the foregoing cell types was evaluated according to the procedures set forth below.
(§4) The doxycycline-inducible progesterone receptor isoform B protein expressing cell line was established using the following protocol: T-Rex 293 cells were purchased from Invitrogen (Cat #R71007) and transfected using Lipofectamine 2000 with the wild-type progesterone receptor B protein sequence cloned into the pcDNA4/TO vector. Transfected cells were selected using 400 μg/mL Zeocin (Invitrogen Cat #R25001). Following selection, single clones were raised and maintained in Dulbecco's Modified Eagle Medium (DMEM) supplemented with 10% w/w Tetracycline-free fetal bovine serum (FBS) and 250 μg/mL Zeocin. Clones were analyzed for expression of progesterone receptor isoform B protein in the presence and absence of 10 ng/ml doxycycline (Sigma Cat #D9891), and a single doxycycline-inducible clone (hereinafter “SC”) was selected for use in downstream assays.
(§5) The SC cells were seeded on poly-D-lysine coated, black clear-bottom 384-well plates at 2500/well, in 25 μL Phenol Red Free Dulbecco's Modified Eagle Medium (DMEM) supplemented with 10% w/w charcoal-dextran treated fetal bovine serum (FBS) and 1% w/w pen-strep, with or without 10 ng/mL doxycycline. Pen-Strep is a commercially available mixture of penicillin G and streptomycin, which is used in mammalian cell culture media to prevent bacterial contamination. Phenol Red Free Dulbecco's Modified Eagle Medium (DMEM) supplemented with 10% w/w charcoal-dextran treated fetal bovine serum (FBS) and 1% w/w pen-strep, with or without 10 ng/mL doxycycline is herein referred to as Treatment Medium. Following seeding of cells in the plates, the plates were spun at 300×g for 30 seconds, then equilibrated to room temperature for 30 minutes, and then deposited in a humidified tissue culture incubator maintained at 37° C. with 5% CO2.
(§6) At 24 hours after seeding of the cells, dilutions of test compound were prepared in DMSO and dissolved in Treatment Medium, to achieve a final DMSO concentration of 0.5% w/w, thereby providing the Test Compound Solution. A 25 μL aliquot of the Test Compound Solution was added to cells in the well plates. An equal volume of a solution containing DMSO and Treatment Medium was used as a negative control. Following treatment of cells with Test Compound Solution or said equal volume of a solution containing DMSO and Treatment Medium, the plates were spun at 300×g for 30 seconds, and then left in an incubator for 72 hours.
(§7) At the end of the treatment duration, cell viability was quantified with CellTiter-Glo 2.0 reagent (Promega Cat #G9243). For this purpose, plates were equilibrated to room temperature for 30 minutes, and then 25 μL of CellTiter-Glo 2.0 reagent was added to cells in the plate wells. Plates were then agitated on a shaker for two minutes at 500 rpm and subsequently incubated at room temperature for 10 minutes. Following incubation, the plates were spun at 3000×g for 30 seconds, then sealed with an optical adhesive cover, and luminescence readings were measured with an EnVision Plate Reader (Perkin Elmer).
(§8) Data was normalized using zero luminescence for baseline. A four-parameter non-linear regression curve fit was applied to dose-response data in GraphPad Prism data analysis software to determine the half-maximal growth inhibitory concentration (GI50) for each test compound.

[9] = test system: T-Rex 293 cell line SC cells lacking increased expression of progesterone receptor isoform B protein; test: Cellular growth inhibition, T-Rex 293 SC cells lacking increased progesterone receptor isoform B expression (no doxycycline), CellTiter-Glo; type: cell-based; settings: T-Rex 293 SC cells not exposed to doxycycline, 72 hours
Procedure: as §3, §4, §5, §6, §7, §8

Compound | Kd [1] [nM] | Kd [2] [nM] | GI50 [3] [nM] | GI50 [4] [nM] | GI50 ([5]; Homo sapiens) [nM] | IC50 [6] [nM] | GI50 [5] [nM] | GI50 [7] [nM] | GI50 [8] [nM] | GI50 [9] [nM] | GI50 ([7]; Homo sapiens) [nM]
Cn1cc(-c2cc(S(=O)(=O)CCCCOC3CCN(c4ccc(C(=O)NC5CCC(Oc6ccc(C#N)c(Cl)c6)CC5)nn4)CC3)ccc2Oc2ccc(F)cc2F)c2cc[nH]c2c1=O (stereo not shown) [I-92, N-[4-(3-chloro-4-cyano-phenoxy)cyclohexyl]-6-[4-[4-[4-(2,4-difluorophenoxy)-3-(6-methyl-7-oxo-1H-pyrrolo[2,3-c]pyridin-4-yl)phenyl]sulfonylbutoxy]-1-piperidyl]pyridazine-3-carboxamide] | > 2500 | > 2500 | < 500 | > 3000 | > 3000 | 50 to 500 |  |  |  |  | 
Cn1cc(-c2cc(S(=O)(=O)CCCCCN3CCN(c4ccc(C(=O)N[C@H]5CC[C@H](Oc6ccc(C#N)c(Cl)c6)CC5)nn4)CC3)ccc2Oc2ccc(F)cc2F)c2cc[nH]c2c1=O [I-94] |  |  | < 500 | > 3000 |  | 50 to 500 | < 500 | 500 to 1500 |  |  | 
Cn1cc(-c2cc(C(C)(C)O)ccc2Oc2ccc(CC3CCN(c4ccc(C(=O)N[C@H]5CC[C@H](Oc6ccc(C#N)c(Cl)c6)CC5)nn4)CC3)cc2)c2cc[nH]c2c1=O [I-101] |  |  | < 500 | 500 to 1500 | < 500 |  |  |  | < 500 | < 500 | < 500
Cn1cc(-c2cc(C(C)(C)O)ccc2Oc2ccc(CCOC3CCN(c4ccc(C(=O)N[C@H]5CC[C@H](Oc6ccc(C#N)c(Cl)c6)CC5)nn4)CC3)cc2)c2cc[nH]c2c1=O [I-103] |  |  | < 500 | < 500 | < 500 |  |  |  | < 500 | < 500 | < 500
Cn1cc(-c2cc(C(C)(C)O)ccc2Oc2ccc(CCOC3CCN(c4ccc(C(=O)N[C@H]5CC[C@H](Oc6ccc(C#N)c(Cl)c6)CC5)nn4)CC3)cc2F)c2cc[nH]c2c1=O [I-106] |  |  | < 500 | < 500 | 500 to 1500 | 50 to 500 |  |  |  |  | < 500
Cn1cc(-c2cc(C(C)(C)O)ccc2Oc2cc(F)c(CCOC3CCN(c4ccc(C(=O)N[C@H]5CC[C@H](Oc6ccc(C#N)c(Cl)c6)CC5)nn4)CC3)cc2F)c2cc[nH]c2c1=O [I-107] |  |  | < 500 | < 500 | < 500 | 50 to 500 |  |  |  |  | < 500
CN(c1ccc(Oc2ccc(C(C)(C)O)cc2-c2cn(C)c(=O)c3[nH]ccc23)cc1)C1CN(c2ccc(C(=O)N[C@H]3CC[C@H](Oc4ccc(C#N)c(Cl)c4)CC3)nn2)C1 [I-138] |  |  | < 500 | < 500 | < 500 |  |  |  | < 500 | < 500 | < 500
Cn1cc(-c2cc(C(C)(C)O)ccc2Oc2ccc(N3CCN(c4ccc(C(=O)N[C@H]5CC[C@H](Oc6ccc(C#N)c(Cl)c6)CC5)nn4)CC3)cc2)c2cc[nH]c2c1=O [I-139] |  |  | < 500 | < 500 |  |  | < 500 | < 500 | < 500 | < 500 | 
CC(C)N(C1CCN(c2ccc(C(=O)N[C@H]3CC[C@H](Oc4ccc(C#N)c(Cl)c4)CC3)nn2)CC1)C1CN(c2cccc(Oc3ccc(C(C)(C)O)cc3-c3cn(C)c(=O)c4[nH]ccc34)c2F)C1 [I-141] |  |  | < 500 | 500 to 1500 |  | 50 to 500 | > 3000 | 500 to 1500 |  |  | 
Cn1cc(-c2cc(C(C)(C)O)ccc2Oc2ccc(N3CC(C4CCN(c5ccc(C(=O)N[C@H]6CC[C@H](Oc7ccc(C#N)c(Cl)c7)CC6)nn5)CC4)C3)cc2)c2cc[nH]c2c1=O [I-148] |  |  | < 500 | > 3000 |  |  | < 500 | < 500 | < 500 | 500 to 1500 | 
Cn1cc(-c2cc(C(C)(C)O)ccc2Oc2ccc(OCC3CCN(c4ccc(C(=O)NC5CCC(Oc6ccc(C#N)c(Cl)c6)CC5)nn4)CC3)cc2)ccc1=O (stereo not shown) [I-235, N-[4-(3-chloro-4-cyano-phenoxy)cyclohexyl]-6-[4-[[4-[4-(1-hydroxy-1-methyl-ethyl)-2-(1-methyl-6-oxo-3-pyridyl)phenoxy]phenoxy]methyl]-1-piperidyl]pyridazine-3-carboxamide] |  |  | < 500 | > 3000 | < 500 | 50 to 500 |  |  |  |  | 500 to 1500
